Laboratory results from patent US10744072B2, “Cosmetic composition for oral administration for reinforcing the skin barrier” (NUTRICOS Technologies, priority 2015, dated 2020).

Key:
Format in all cases: cell-based
GAPDH = assay: Gene expression of reference gene GAPDH in human keratinocytes NHEK per RT-qPCR; details: each compound at 10 μg/ml, 18 hours incubation
Experimental: (§1) The effect of the lycopene and manganese was studied separately then in combination on the gene expression profile (RNAm) of human keratinocytes NHEK (normal human epidermal keratinocytes) per RT-qPCR.
(§2) A 24-well plate was seeded with keratinocytes then placed into culture for 24 hours. The culture medium was then replaced with the test medium comprising according to the cases 0 (negative control), one or two tested compounds. The cells were incubated in this test medium for 18 hours then washed and frozen at −80° C. Each condition was carried out in triplicate. Two samples of each triplicate were grouped together, then the RNAm was extracted therefrom using TriPure Isolation Reagent® according to the supplier's recommendations. The ADNc was synthesized via reverse transcription of total RNA by “Transcriptor Reverse Transcriptase” from Roche. Then a quantitative PCR was performed in the presence of a fluorophore. The incorporation of fluorophore in the amplified DNA was measured during the PCR cycles. Two genes were used as a reference (RPS28 ad GADPH), in order to standardize the results. As such the level of expression of the studied genes was compared to the average level of expression of these two reference genes for all of the conditions tested.
(§3) For this test, the source of lycopene is Lyc-o-Mato marketed by Lycored and the source manganese is manganese sulfate.

RPS28 = assay: Gene expression of reference gene RPS28 in human keratinocytes NHEK per RT-qPCR; details: each compound at 10 μg/ml, 18 hours incubation
Experimental: as §1, §2, §3

SPRR2D = assay: Gene expression (RNAm) of SPRR2D in human keratinocytes NHEK per RT-qPCR; details: each compound at 10 μg/ml, 18 hours incubation, standardized to RPS28 and GAPDH
Experimental: as §1, §2, §3

manganese sulfate
Control (GAPDH) expression expressed as a percentage in relation to the conditions without added compound (GAPDH): 96% | Control (RPS28) expression expressed as a percentage in relation to the conditions without added compound (RPS28): 117% | SPRR2D expression expressed as a percentage in relation to the conditions without added compound (SPRR2D): 106%
